Experimental data as given in patent publication US9809626B2, “Antibacterial agents: salinamide derivatives” (priority 2012, dated 2017).
≈ marks a conversion by molar mass, not a printed value. Where two headings read alike, the source gives them in different places. Numbered stars: 1 amine (or outer) side, 2 acyl side, 3 side chain; on linkers, the order of the positions; unused ones are H or OH. Bridge positions count the residues as written; N and C are the ends. Square brackets hold non-standard residues; d marks the D form. Peptide text beside a SMILES is read from it. * marks the point of attachment. X2 = C[C@@H](Oc1ccc([C@H](N[*:1])C(=O)[*:2])cc1)[C@](O)(/C=C/C(=O)[*:3])CBr; X3 = C[C@@H](Oc1ccc([C@H](N[*:1])C(=O)[*:2])cc1)C(O)(/C=C/C(=O)[*:3])CCl; X1 = C[C@@H](Oc1ccc([C@H](N[*:1])C(=O)[*:2])cc1)C1(/C=C/C(=O)[*:3])CO1; Pentanoyl(2R-Me,3R-OH,4-Me) = CC(C)[C@@H](O)[C@@H](C)C(=O)*; d(aIle) = CC[C@H](C)[C@@H](N)C(=O)O; d(aThr) = C[C@@H](O)[C@@H](N)C(=O)O; NMeF = CN[C@@H](Cc1ccccc1)C(=O)O

Legend:
[1] = target: T1, Escherichia coli RNAP holoenzyme (Escherichia coli, UniProt P0A8T7+P0A8V2); assay: Radiochemical RNAP assay, Escherichia coli RNAP; format: biochemical
T1 construct: made in house
Protocol: (§1) Radiochemical RNAP assays with Escherichia coli RNAP and Staphylococcus aureus RNAP were performed as follows: Reaction mixtures contained (10 μl): 0-100 μM test compound, bacterial RNAP holoenzyme [75 nM Escherichia coli RNAP holoenzyme (prepared as in Mukhopadhyay et al., Meths. Enzymol. 371:144-159, 2003) or 75 nM Staphylococcus aureus RNAP core enzyme and 300 nM Staphylococcus aureus σ^A (prepared as in Srivastava et al., Curr. Opin. Microbiol. 14:532-543, 2011)], 20 nM DNA fragment N25-lacUV5-14 [positions −100 to −1 of the bacteriophage T5 N25 promoter followed by positions +1 to +29 of the lacUV5(+10A; +15C) promoter; prepared by PCR amplification of a synthetic nontemplate-strand oligodeoxyribonucleotide], 0.5 mM ApA, 100 μM □[α^32P]UTP (0.2 Bq/fmol), 100 μM ATP, and 100 μM GTP in TB (50 mM Tris-HCl, pH 7.9, 100 mM KCl, 10 mM MgCl2, 1 mM DTT, 100 μg/ml bovine serum albumin, and 5% glycerol). […] Products were applied to 7 M urea 15% polyacrylamide (19:1 acrylamide:bisacrylamide) slab gels (Bio-Rad), electrophoresed in TBE (90 mM Tris-borate, pH 8.0, and 2 mM EDTA), and analyzed by storage-phosphor scanning (Typhoon; GE Healthcare, Inc.).
(§2) Half-maximal inhibitory concentrations (IC50s) were calculated by non-linear regression in SigmaPlot (SPSS, Inc.).

[2] = target: T2, Staphylococcus aureus RNAP (Staphylococcus aureus, UniProt P47768+Q2G0N5); assay: Radiochemical RNAP assay, Staphylococcus aureus RNAP; format: biochemical
T2 construct: made in house
Protocol: as §1, §2

[3] = tested on: human RNAP I, II, and III; assay: Radiochemical assay with human RNAP I, II, and III (HeLaScribe Nuclear Extract); format: biochemical
Protocol: Radiochemical assays with human RNAP I, II, and III were performed essentially as described [Sawadogo and Roeder, Cell 43:165-75, 1985]. Reaction mixtures contained (20 μl): 0-100 μM test compound, 8 U HeLaScribe Nuclear Extract (Promega, Inc.), 1 μg human placental DNA (Sigma-Aldrich), 400 μM ATP, 400 μM [α^32P]UTP (0.11 Bq/fmol), 400 μM CTP, 400 μM GTP, 50 mM Tris-HCl, pH 8.0, 7 mM HEPES-NaOH, 70 mM (NH4)2SO4, 50 mM KCl, 12 mM MgCl2, 5 mM DTT, 0.1 mM EDTA, 0.08 mM phenylmethylsulfonyl fluoride, and 16% glycerol. Reaction components other than DNA and NTPs were pre-incubated 10 min at 30° C., DNA was added and reaction mixtures were incubated 15 min at 30° C., NTPs were added and reaction mixtures were incubated 60 min at 30° C. Reaction mixtures were spotted on DE81 filter discs (Whatman, Inc.; pre-wetted with water) and incubated 1 min at room temperature. Filters were washed with 3×3 ml Na2HPO4, 2×3 ml water, and 3 ml ethanol, using a filter manifold (Hoefer, Inc.). Filters were placed in scintillation vials containing 10 ml Scintiverse BD Cocktail (Thermo Fisher, Inc.), and radioactivity was quantified by scintillation counting (LS6500; Beckman-Coulter, Inc.).
as §2

[4] = target: Escherichia coli RNAP σ70 holoenzyme (Escherichia coli, UniProt P0A8T7+P0A8V2); assay: Fluorescence-detected RNAP assay, Escherichia coli RNAP; format: biochemical; conditions: for IC50: fluorescent-detected RNAP assays
Chain of Escherichia coli RNAP σ70 holoenzyme (P0A8T7 whole entry, the tested form may be a part): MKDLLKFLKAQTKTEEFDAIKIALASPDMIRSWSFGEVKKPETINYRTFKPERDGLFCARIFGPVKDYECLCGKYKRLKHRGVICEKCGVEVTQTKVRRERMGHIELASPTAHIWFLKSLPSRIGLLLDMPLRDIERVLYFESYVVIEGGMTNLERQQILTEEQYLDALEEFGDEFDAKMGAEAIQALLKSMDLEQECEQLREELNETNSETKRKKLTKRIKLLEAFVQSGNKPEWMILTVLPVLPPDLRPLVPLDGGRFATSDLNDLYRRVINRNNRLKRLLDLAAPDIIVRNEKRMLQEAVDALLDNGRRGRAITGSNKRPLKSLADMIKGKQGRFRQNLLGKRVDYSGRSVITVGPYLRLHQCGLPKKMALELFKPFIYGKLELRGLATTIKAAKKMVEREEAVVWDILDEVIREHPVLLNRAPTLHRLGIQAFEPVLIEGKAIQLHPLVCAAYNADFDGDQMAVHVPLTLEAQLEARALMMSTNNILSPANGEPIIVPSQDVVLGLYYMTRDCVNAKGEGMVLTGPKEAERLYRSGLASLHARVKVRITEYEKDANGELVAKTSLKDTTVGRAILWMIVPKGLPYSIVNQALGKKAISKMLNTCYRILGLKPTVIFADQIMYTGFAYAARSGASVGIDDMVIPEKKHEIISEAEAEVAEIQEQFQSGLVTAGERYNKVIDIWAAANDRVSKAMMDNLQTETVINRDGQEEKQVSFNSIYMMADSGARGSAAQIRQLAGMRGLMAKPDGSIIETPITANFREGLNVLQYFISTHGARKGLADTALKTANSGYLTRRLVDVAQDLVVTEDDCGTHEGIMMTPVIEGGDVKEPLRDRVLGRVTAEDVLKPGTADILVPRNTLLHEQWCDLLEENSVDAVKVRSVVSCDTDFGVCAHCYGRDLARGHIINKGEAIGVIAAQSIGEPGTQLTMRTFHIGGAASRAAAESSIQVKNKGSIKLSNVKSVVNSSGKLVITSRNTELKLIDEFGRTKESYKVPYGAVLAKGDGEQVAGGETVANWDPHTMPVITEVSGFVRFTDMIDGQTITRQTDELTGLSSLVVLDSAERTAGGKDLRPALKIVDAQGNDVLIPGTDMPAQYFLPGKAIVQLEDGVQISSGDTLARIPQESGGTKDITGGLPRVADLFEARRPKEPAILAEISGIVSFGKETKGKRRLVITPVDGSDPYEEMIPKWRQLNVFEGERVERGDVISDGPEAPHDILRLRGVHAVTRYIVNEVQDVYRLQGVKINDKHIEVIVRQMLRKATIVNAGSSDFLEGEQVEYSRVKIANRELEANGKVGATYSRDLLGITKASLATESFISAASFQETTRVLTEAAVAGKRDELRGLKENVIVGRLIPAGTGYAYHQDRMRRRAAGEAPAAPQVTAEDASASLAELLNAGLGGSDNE
Chain of Escherichia coli RNAP σ70 holoenzyme (P0A8V2 whole entry, the tested form may be a part): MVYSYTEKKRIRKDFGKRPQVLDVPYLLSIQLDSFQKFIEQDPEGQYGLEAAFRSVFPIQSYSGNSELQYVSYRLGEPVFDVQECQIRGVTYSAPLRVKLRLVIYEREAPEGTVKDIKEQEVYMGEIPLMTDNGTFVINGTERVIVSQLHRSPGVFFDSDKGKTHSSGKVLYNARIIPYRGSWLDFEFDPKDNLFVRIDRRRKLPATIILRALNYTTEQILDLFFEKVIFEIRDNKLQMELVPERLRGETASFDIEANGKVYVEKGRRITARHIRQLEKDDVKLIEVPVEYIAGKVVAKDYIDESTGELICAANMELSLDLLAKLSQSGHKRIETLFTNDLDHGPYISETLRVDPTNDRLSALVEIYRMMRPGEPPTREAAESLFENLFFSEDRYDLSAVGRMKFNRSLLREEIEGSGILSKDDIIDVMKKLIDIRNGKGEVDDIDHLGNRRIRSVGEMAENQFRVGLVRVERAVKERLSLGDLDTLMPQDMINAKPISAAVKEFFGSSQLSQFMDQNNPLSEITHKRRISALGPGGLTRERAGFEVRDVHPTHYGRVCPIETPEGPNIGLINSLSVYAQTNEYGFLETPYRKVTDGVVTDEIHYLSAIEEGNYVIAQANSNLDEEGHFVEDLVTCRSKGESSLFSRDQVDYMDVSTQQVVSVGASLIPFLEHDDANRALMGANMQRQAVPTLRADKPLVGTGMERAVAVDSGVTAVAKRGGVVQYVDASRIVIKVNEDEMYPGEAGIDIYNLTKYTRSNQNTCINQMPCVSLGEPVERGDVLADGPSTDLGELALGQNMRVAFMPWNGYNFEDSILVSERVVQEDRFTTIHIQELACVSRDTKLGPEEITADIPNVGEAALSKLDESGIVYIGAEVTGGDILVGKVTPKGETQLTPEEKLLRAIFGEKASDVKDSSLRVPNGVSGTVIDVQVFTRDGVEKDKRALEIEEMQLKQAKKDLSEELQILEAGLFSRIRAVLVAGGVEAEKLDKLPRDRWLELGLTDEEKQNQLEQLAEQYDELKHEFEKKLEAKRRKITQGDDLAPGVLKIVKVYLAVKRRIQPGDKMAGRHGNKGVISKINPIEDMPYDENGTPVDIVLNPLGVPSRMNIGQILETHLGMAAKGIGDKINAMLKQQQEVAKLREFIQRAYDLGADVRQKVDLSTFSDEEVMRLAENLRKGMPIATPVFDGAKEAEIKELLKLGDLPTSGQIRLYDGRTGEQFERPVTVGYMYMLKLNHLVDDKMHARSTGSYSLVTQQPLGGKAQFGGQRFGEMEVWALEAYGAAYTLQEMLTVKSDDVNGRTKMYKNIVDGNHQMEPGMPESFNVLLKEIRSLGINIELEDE
Chain of Escherichia coli RNAP σ70 holoenzyme (P0A7Z4 whole entry, further chain, the tested form may be a part): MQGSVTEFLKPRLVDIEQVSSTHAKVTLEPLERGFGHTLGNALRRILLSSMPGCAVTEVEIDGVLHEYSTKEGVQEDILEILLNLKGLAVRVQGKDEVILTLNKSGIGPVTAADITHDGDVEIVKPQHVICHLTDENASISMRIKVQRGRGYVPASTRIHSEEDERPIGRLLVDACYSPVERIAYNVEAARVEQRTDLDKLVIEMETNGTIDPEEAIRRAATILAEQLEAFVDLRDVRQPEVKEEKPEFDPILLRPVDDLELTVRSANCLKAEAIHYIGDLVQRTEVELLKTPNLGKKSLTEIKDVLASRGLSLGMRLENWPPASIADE
Chain of Escherichia coli RNAP σ70 holoenzyme (P0A800 whole entry, further chain, the tested form may be a part): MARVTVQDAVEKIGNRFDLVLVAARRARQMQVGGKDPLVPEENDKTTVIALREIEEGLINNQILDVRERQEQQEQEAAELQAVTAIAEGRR
Chain of Escherichia coli RNAP σ70 holoenzyme (P00579 whole entry, further chain, the tested form may be a part): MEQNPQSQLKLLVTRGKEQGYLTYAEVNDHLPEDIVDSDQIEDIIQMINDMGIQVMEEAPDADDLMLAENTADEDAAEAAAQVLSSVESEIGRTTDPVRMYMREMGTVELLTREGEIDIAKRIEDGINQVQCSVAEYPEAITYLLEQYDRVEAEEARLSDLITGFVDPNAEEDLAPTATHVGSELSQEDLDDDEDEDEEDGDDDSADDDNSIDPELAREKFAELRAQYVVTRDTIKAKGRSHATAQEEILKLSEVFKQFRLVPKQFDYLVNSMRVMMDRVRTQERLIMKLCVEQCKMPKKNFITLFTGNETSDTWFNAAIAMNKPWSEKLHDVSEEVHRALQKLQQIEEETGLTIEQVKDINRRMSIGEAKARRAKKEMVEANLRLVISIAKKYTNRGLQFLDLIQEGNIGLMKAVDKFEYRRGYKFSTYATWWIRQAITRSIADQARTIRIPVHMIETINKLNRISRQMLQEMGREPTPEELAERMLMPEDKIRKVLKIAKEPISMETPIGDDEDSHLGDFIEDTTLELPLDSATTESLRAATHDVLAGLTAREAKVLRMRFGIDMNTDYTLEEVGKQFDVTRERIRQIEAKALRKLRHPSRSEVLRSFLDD
Protocol: Fluorescence-detected RNAP assays with Escherichia coli RNAP were performed by a modification of the procedure of Kuhlman et al., Anal. Biochem. 324:183-190, 2004]. Reaction mixtures contained (20 μl): 0-100 nM test compound, 75 nM Escherichia coli RNAP σ^70 holoenzyme, 20 nM 384 bp DNA fragment containing the bacteriophage T4 N25 promoter, 100 μM ATP, 100 μM GTP, 100 μM UTP, 100 μM CTP, 50 mM Tris-HCl, pH 8.0, 100 mM KCl, 10 mM MgCl2, 1 mM DTT, 10 μg/ml bovine serum albumin, and 5.5% glycerol. Reaction components other than DNA and NTPs were pre-incubated for 10 min at 37° C. Reactions were carried out by addition of DNA and incubation for 5 min at 37° C., followed by addition of NTPs and incubation for 60 min at 37° C. DNA was removed by addition of 1 μl 5 mM CaCl2 and 2 U DNasel (Ambion, Inc.), followed by incubation for 90 min at 37° C. RNA was quantified by addition of 100 μl RiboGreen RNA Quantitation Reagent (Invitrogen, Inc.; 1:500 dilution in Tris-HCl, pH 8.0, 1 mM EDTA), followed by incubation for 10 min at 25° C., followed by measurement of fluorescence intensity [excitation wavelength=485 nm and emission wavelength=535 nm; QuantaMaster QM1 spectrofluorometer (PTI, Inc.)].
as §2

[5] = tested on: Enterobacter cloacae ATCC13047; assay: Antibacterial activity, broth microdilution; format: cell-based; conditions: for MIC50: Enterobacter cloacae, ATCC13047, minimal concentration resulting in ≧50% inhibition of bacterial growth, read-out: MIC50 Enterobacter cloacae ATCC 13047; for antibacterial activity against Enterobacter cloacae: Gram-negative bacterial pathogen
Excerpt: (§3) Antibacterial activity was quantified using broth microdilution [Clinical and Laboratory Standards Institute (CLSI/NCCLS), Methods for Dilution Antimicrobial Susceptibility Tests for Bacteria That Grow Aerobically; Approved Standard, Eighth Edition. CLIS Document M07-A8 (CLIS, Wayne Pa.), 2009]. Assays with Enterobacter cloacae ATCC13047, Pseudomonas aeruginosa ATCC10145, and Escherichia coli D21f2to1C, employed a starting cell density of 2-5×10^5 cfu/ml, Mueller Hinton II cation adjusted broth (BD Biosciences, Inc.), and an air atmosphere. Assays with Haemophilus influenzae ATCC49247 and Neisseria gonorrhoeae ATCC19424 employed a starting cell density of 2-5×10^5 cfu/ml, Haemophilus Test Medium broth (Barry et al., 1993) and a 5% CO2/95% air atmosphere. MIC50 was defined as the minimal concentration resulting in ≧50% inhibition of bacterial growth.

[6] = tested on: Escherichia coli D21f2tolC; assay: Antibacterial activity, broth microdilution; format: cell-based; conditions: for MIC50: Escherichia coli, D21F2TOLC, read-out: MIC50 Escherichia coli D21f2tolC
Excerpt: as §3

[7] = tested on: Haemophilus influenzae ATCC49247; assay: Antibacterial activity, broth microdilution; format: cell-based; conditions: for antibacterial activity against Haemophilus influenzae: Gram-negative bacterial pathogen
Excerpt: as §3

[8] = tested on: Neisseria gonorrhoeae ATCC19424; assay: Antibacterial activity, broth microdilution; format: cell-based; conditions: for antibacterial activity against Neisseria gonorrhoeae: Gram-negative bacterial pathogen
Excerpt: as §3

[9] = tested on: Pseudomonas aeruginosa ATCC10145; assay: Antibacterial activity, broth microdilution; format: cell-based; conditions: for antibacterial activity against Pseudomonas aeruginosa: Gram-negative bacterial pathogen
Excerpt: as §3

[10] = tested on: Vero E6 cells (ATCC CRL1586); assay: Cytotoxicity to mammalian cells in culture (CellTiter96 assay); format: cell-based; conditions: for MIC50 Vero E6 ATCC CRL1586: Table 3
Excerpt: MICs for mammalian cells (Vero E6) in culture were quantified using CellTiter96 assay (Promega. Inc.; procedures as specified by the manufacturer).

[11] = target: RNAP-promoter open complex (Escherichia coli, UniProt P0A8T7+P0A8V2); assay: Formation of the RNAP-promoter open complex; format: biochemical
RNAP = assay: Mechanism of transcription inhibition (nucleotide addition, trigger loop, NTP competition); format: biochemical
[12] = tested on: rifamycin-, CBR703-, streptolydigin-, myxopyronin- and lipiarmycin-resistant mutants; conditions: disclosed herein
[13] = tested on: Gram-positive and Gram-negative bacterial RNAP; conditions: reported previously (Miao et al. 1997); cited from earlier work
[14] = tested on: Gram-positive bacterial pathogens; conditions: reported previously (Trischman et al. 1994; Moore et al. 1999); cited from earlier work
[15] = tested on: bacterial cells in culture; conditions: Ebright et al., WO/2012/129173; cited from earlier work
[16] = tested on: rifamycin-, CBR703-, streptolydigin-, myxopyronin- and lipiarmycin-resistant mutants; conditions: Ebright et al., WO/2012/129173; cited from earlier work
[17] = tested on: Gram-positive and Gram-negative bacterial RNAP; assay: Inhibition of bacterial RNAP in vitro (statement); format: biochemical; conditions: disclosed herein
[18] = read-out: IC50 human RNAP I/II/III

Row | SMILES | IC50 [3, 18] | MIC50 [5] | MIC50 [6] | MIC50 Vero E6 ATCC CRL1586 [10] | inhibition of human RNAP I, II, and III [3] | IC50 [4] | antibacterial activity against Enterobacter cloacae [5] | antibacterial activity against Haemophilus influenzae [7] | antibacterial activity against Neisseria gonorrhoeae [8] | antibacterial activity against Pseudomonas aeruginosa [9] | inhibition of growth of mammalian cells in culture [10] | antibacterial activity against Gram-positive bacterial pathogens [14] | other results
1 | CC[C@H](C)[C@H]1NC(=O)[C@@H](NC(=O)[C@H](C)[C@H](O)C(C)C)[C@@H](C)OC(=O)[C@@H]2COC(=O)CNC(=O)/C=C/[C@](O)(CBr)[C@@H](C)Oc3ccc(cc3)[C@H](NC1=O)C(=O)N(C)[C@@H](Cc1ccccc1)C(=O)N[C@H]([C@@H](C)O)C(=O)N2 [Sal-Br (3), Sal-Br] ({Pentanoyl(2R-Me,3R-OH,4-Me)}-T[d(aIle)][X2][NMeF][d(aThr)]S; ester 1-C; linker 3-6 via G) | > 100 µM | 1.56 µg/mL (≈ 1.42 µM) | 0.049 µg/mL (≈ 0.0445 µM) | >100 µg/mL |  |  |  |  |  |  |  |  | IC50 [1]: 0.78 ± 0.05 µM; IC50 [2]: 0.54 ± 0.04 µM; IC50 ([3]; radiochemical assay, read-out: IC50 human RNAP I, II, and III): > 100 µM; RNAP-inhibitory activity ([4]; refers to Table 1): essentially full; antibacterial activity ([6]; refers to Table 2 (E. coli D21f2tolC and Enterobacter cloacae)): essentially full; MIC50 ([7]; Haemophilus influenzae, ATCC49247, minimal concentration resulting in ≧50% inhibition of bacterial growth): 6.25 µg/mL (≈ 5.68 µM); MIC50 ([8]; Neisseria gonorrhoeae, ATCC19424, minimal concentration resulting in ≧50% inhibition of bacterial growth): 1.56 µg/mL (≈ 1.42 µM); MIC50 ([9]; Pseudomonas aeruginosa, ATCC10145, minimal concentration resulting in ≧50% inhibition of bacterial growth): 50 µg/mL (≈ 45.4 µM); MIC Vero E6 cells ([10]; growth of mammalian cells in culture): > 50 µg/mL
2 | CC[C@H](C)[C@H]1NC(=O)[C@@H](NC(=O)[C@H](C)[C@H](O)C(C)C)[C@@H](C)OC(=O)[C@@H]2COC(=O)CNC(=O)/C=C/C3(CO3)[C@@H](C)Oc3ccc(cc3)[C@H](NC1=O)C(=O)N(C)[C@@H](Cc1ccccc1)C(=O)N[C@H]([C@@H](C)O)C(=O)N2 (stereo partly drawn) [SalA (1), salinamide A] ({Pentanoyl(2R-Me,3R-OH,4-Me)}-T[d(aIle)][X1][NMeF][d(aThr)]S; ester 1-C; linker 3-6 via G) | > 100 µM | 1.56 µg/mL (≈ 1.53 µM) | 0.024 µg/mL (≈ 0.0235 µM) | >100 µg/mL | do not detectably inhibit | 1 µM | exhibit antibacterial activity | exhibit antibacterial activity | exhibit antibacterial activity | exhibit antibacterial activity | do not detectably inhibit | exhibit antibacterial activity | inhibition of formation of the RNAP-promoter open complex in transcription initiation [11]: does not inhibit; inhibition of nucleotide addition in transcription initiation and transcription elongation (RNAP): inhibits; inhibition of wild-type RNAP versus RNAP-derivative having a deletion of the trigger loop (RNAP): equal extents; mode of transcription inhibition with respect to NTP substrate (RNAP): noncompetitive; cross-resistance of streptolydigin-resistant, myxopyronin-resistant, and lipiarmycin-resistant mutants with Sal [12]: do not exhibit cross-resistance; inhibition of Gram-positive and Gram-negative bacterial RNAP in vitro [13]: inhibits; inhibition of RNA synthesis in bacterial cells in culture [15]: inhibits; cross-resistance of CBR703-resistant mutants to Sal [16]: not cross-resistant; cross-resistance of rifamycin-resistant mutants to Sal [16]: not cross-resistant
3 | CC[C@H](C)[C@H]1NC(=O)[C@@H](NC(=O)[C@H](C)[C@H](O)C(C)C)[C@@H](C)OC(=O)[C@@H]2COC(=O)CNC(=O)/C=C/C(O)(CCl)[C@@H](C)Oc3ccc(cc3)[C@H](NC1=O)C(=O)N(C)[C@@H](Cc1ccccc1)C(=O)N[C@H]([C@@H](C)O)C(=O)N2 (stereo partly drawn) [SalB (2), salinamide B] ({Pentanoyl(2R-Me,3R-OH,4-Me)}-T[d(aIle)][X3][NMeF][d(aThr)]S; ester 1-C; linker 3-6 via G) | > 100 µM | 6.25 µg/mL (≈ 5.92 µM) | 0.098 µg/mL (≈ 0.0927 µM) | >100 µg/mL | do not detectably inhibit | 1 µM | exhibit antibacterial activity | exhibit antibacterial activity | exhibit antibacterial activity | exhibit antibacterial activity | do not detectably inhibit | exhibit antibacterial activity | inhibition of Gram-positive and Gram-negative bacterial RNAP in vitro [17]: inhibits
